Experimental data taken from patent publication US5736546A, “1,4-(diphenlyalkyl) piperazine derivatives” (Santen Pharmaceutical Co., Ltd., priority 1993, dated 1998).
Counter-ions that a name gives are not always drawn.

Assays:
sigma receptors [1] = target: T1, sigma receptors (Cavia porcellus, UniProt Q60492); assay: biochemical; design: species or system Hartley guinea pig; details: read-out: IC50 (inhibition of specific binding of [3H](+)-SKF-10047)
T1 construct: A brain of a Hartley guinea pig (weight: 300-400 g) was excised; from tissue; host or cells: Hartley guinea pig brain, membrane preparation
T1 sequence (Q60492 whole entry): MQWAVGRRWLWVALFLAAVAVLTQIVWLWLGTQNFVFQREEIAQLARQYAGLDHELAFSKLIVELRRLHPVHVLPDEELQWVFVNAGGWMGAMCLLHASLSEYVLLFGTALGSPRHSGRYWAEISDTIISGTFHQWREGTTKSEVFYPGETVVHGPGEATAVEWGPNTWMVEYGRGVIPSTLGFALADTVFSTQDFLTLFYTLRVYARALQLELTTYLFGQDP

μ receptors = μ receptors (Rattus norvegicus, UniProt P33535)
μ receptors, sequence (P33535 whole entry): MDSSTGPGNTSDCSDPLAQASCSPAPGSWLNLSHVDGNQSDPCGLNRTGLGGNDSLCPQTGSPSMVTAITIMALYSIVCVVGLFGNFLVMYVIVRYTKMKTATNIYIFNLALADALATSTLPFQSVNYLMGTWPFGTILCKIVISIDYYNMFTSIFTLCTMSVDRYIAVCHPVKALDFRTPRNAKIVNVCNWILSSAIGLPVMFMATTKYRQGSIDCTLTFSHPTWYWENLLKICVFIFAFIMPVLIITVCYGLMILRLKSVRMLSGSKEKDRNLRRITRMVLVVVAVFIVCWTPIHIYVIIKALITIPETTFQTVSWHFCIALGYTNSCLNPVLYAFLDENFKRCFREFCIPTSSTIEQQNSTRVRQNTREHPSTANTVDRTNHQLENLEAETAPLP

sigma receptors [2] = target: T1, sigma receptors; assay: Experiment using [3H](+)-PTZ as a labeled ligand (affinity for sigma receptors); design: species or system Hartley guinea pig; details: [3H](+)-PTZ 5 nM; guinea pig brain membrane; 37° C., 150 minutes; averages of 4-11 samples; read-out: IC50 (inhibition of specific binding of [3H](+)-PTZ)
Procedure: Experiment Using [^3 H](+)-PTZ as a Labeled Ligand
Affinities for sigma receptors were determined by the following method using [^3 H](+)-PTZ as a labeled ligand according to the report of DeHaven-Hudkins et al. (Eur. I. Pharmacol,, 227, 371-378 (1992)).

[3] = test system: amount of acetylcholine in rat brain; assay: Increasing effects on the amount of intracerebral acetylcholine (intracerebral microdialysis method); assay type: in vivo, male Wistar rat; details: oral, 30 minutes after administration, averages of 3-7 samples
Procedure: (The New England Journal of Medicine, 315, 1241-1245 (1986)), the amount of acetylcholine in rat brain was then measured according to the report of Matsuno et al. (Brain Research, 575, 315-319 (1992)). […] 2. […] (The New England Journal of Medicine, 315, 1241-1245 (1986)), an experiment was performed to examine effects of the compounds of this invention on the amount of acetylcholine in rat brain. (Experimental Method) The amount of acetylcholine in rat brain was measured by the following method using intracerebral microdialysis method according to the report of Matsuno et al. (Brain Research, 575, 315-319 (1992)). […] The amount of acetylcholine in rat brain was measured with time. When it became constant, the test compound suspended in 1% methylcellulose solution was administered orally to the rat, and the amount of intracerebral acetylcholine was measured. The amount of acetylcholine in rat brain (average of six samples) to which the test compound was not administered was used as a control.

| Structure (SMILES) | IC50 (sigma receptors [1]; [3H](+)-SKF-10047 5 nM, guinea pig brain membrane, 25° C., 30 minutes) | IC50 (μ receptors) | IC50 (sigma receptors [2]) | IC50 (sigma receptors [1]) | amount of acetylcholine (% control) ([3]; 40 mg/kg) | amount of acetylcholine (% control) ([3]; 80 mg/kg) | amount of acetylcholine (% control) ([3]; 20 mg/kg) | amount of acetylcholine (% control) ([3]; 10 mg/kg) |
| --- | --- | --- | --- | --- | --- | --- | --- | --- |
| COc1ccc(CCN2CCN(Cc3ccccc3)CC2)cc1OC [compound No. 1-3, 1-[2-(3,4-Dimethoxyphenyl)ethyl]-4-benzylpiperazine dihydrochloride] | 4.28 nM | > 10 µM | – | – | – | – | – | – |
| COc1ccc(CCN2CCN(CCc3ccccc3)CC2)cc1OC [compound No. 1-2, 1-[2-(3,4-Dimethoxyphenyl)ethyl]-4-(2-phenylethyl)piperazine dihydrochloride] | – | > 10 µM | 18 nM | 9.32 nM | – | – | – | – |
| COc1ccc(CCN2CCN(CCCCc3ccccc3)CC2)cc1OC.Cl.Cl [compound No. 1-4, 1-[2-(3,4-Dimethoxyphenyl)ethyl]-4-(4-phenylbutyl)piperazine dihydrochloride] | – | – | 10.7 nM | – | 146.2 % control | 164.9 % control | – | – |
| COc1ccc(CCCN2CCN(CCCc3ccccc3)CC2)cc1OC.Cl.Cl [compound No. 1-6, 1-[3-(3,4-Dimethoxyphenyl)propyl]-4-(3-phenylpropyl)piperazine dihydrochloride] | – | – | 14.9 nM | – | 176.9 % control | – | 146.1 % control | – |
| COc1ccc(CCN2CCN(CCCc3ccccc3)CC2)cc1OC.Cl.Cl [compound No. 1-1, 1-[2-(3,4-Dimethoxyphenyl)ethyl]-4-(3-phenylpropyl)piperazine dihydrochloride] | – | > 10 µM | – | – | – | – | 170.0 % control | 154.3 % control |
